Measurements taken from the supplement of paper PMC4862054.

Experiments:
MDA-MB-468 = settings: 72 h
Method in brief: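 Seeding of breast cancer cell lines (20 µl suspension) was done into 384-well plates pre-loaded with compound at 5 concentrations, 10-fold apart, covering a compound-specific 10,000-fold range. The plates were incubated for 72 h, read for CellTox Green fluorescence (485/520 nm), and then read for CellTiter-Glo luminescence after 10 min at room temperature. Every plate was normalised to 0.1 % DMSO and a positive kill control. Curve fitting gave the EC50, censored at the top concentration.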

SK-BR-3 = experiment: normalised viability (% of control), CellTiter-Blue; higher = more viable cells (about 100 = DMSO control); settings: incubation time: 72 h
Method in brief: (§1)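 Breast cancer cell lines were treated for 72 h in 384-well format and measured by CellTiter-Blue fluorescence at 560/590 nm. Results were normalised per plate to vehicle (100) and a positive kill control (0). The entry is normalised viability at a single listed concentration of the series.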

CAL-51 = experiment: as above; settings: incubation time: 72 h
Method in brief: as §1

BT-549 = experiment: as above; settings: incubation time: 72 h
Method in brief: as §1

DU-4475 = experiment: as above; settings: incubation time: 72 h
Method in brief: as §1

MFM-223 = experiment: as above; settings: incubation time: 72 h
Method in brief: as §1

BT-474 = experiment: as above; settings: incubation time: 72 h
Method in brief: as §1

MDA-MB-453 = experiment: as above; settings: incubation time: 72 h
Method in brief: as §1

Row | Structure (SMILES) | EC50, CellTiter-Glo (MDA-MB-468) | normalised viability (SK-BR-3; 10 nM) | normalised viability (SK-BR-3; 1000 nM) | normalised viability (SK-BR-3; 10000 nM) | normalised viability (CAL-51; 3 nM) | normalised viability (CAL-51; 30 nM) | normalised viability (CAL-51; 100 nM) | normalised viability (BT-549; 10 nM) | normalised viability (BT-549; 1000 nM) | normalised viability (BT-549; 10000 nM) | normalised viability (DU-4475; 3 nM) | normalised viability (DU-4475; 30 nM) | normalised viability (DU-4475; 100 nM) | normalised viability (MFM-223; 10 nM) | normalised viability (MFM-223; 1000 nM) | normalised viability (MFM-223; 10000 nM) | normalised viability (BT-474; 10 nM) | normalised viability (BT-474; 1000 nM) | normalised viability (BT-474; 10000 nM) | normalised viability (MDA-MB-453; 3 nM) | normalised viability (MDA-MB-453; 30 nM) | normalised viability (MDA-MB-453; 100 nM) | normalised viability (SK-BR-3; 1 nM) | normalised viability (SK-BR-3; 100 nM) | normalised viability (CAL-51; 0.3 nM) | normalised viability (CAL-51; 10 nM) | normalised viability (BT-549; 1 nM) | normalised viability (BT-549; 100 nM) | normalised viability (DU-4475; 0.3 nM) | normalised viability (DU-4475; 10 nM) | normalised viability (MFM-223; 1 nM) | normalised viability (MFM-223; 100 nM) | normalised viability (BT-474; 1 nM) | normalised viability (BT-474; 100 nM) | normalised viability (MDA-MB-453; 0.3 nM) | normalised viability (MDA-MB-453; 10 nM)
1 | O=C(/C=C/c1cccc(S(=O)(=O)Nc2ccccc2)c1)NO [Belinostat] | 410 nM | 86.9% | 21.6% | 3.92% | 101% | 103% | 115% | 108% | 67.8% | 13.1% | 99.9% | 106% | 98.7% | 87.8% | 37.2% | 11.1% | 106% | 47.5% | 2.17% | 90.7% | 82.5% | 64.6% |  |  |  |  |  |  |  |  |  |  |  |  |  | 
2 | COc1cc2c(NC3CCN(C(C)C)CC3)nc(N3CCC(F)(F)CC3)nc2cc1OCCCN1CCCC1 [UNC0642] | 2050 nM |  |  |  |  |  |  |  |  |  |  |  |  |  |  |  |  |  |  |  |  |  |  |  |  |  |  |  |  |  |  |  |  |  |  | 
3 | Cc1[nH]c2ccccc2c1CCNCc1ccc(/C=C/C(=O)NO)cc1 [Panobinostat] | 39 nM |  | 3.54% |  | 111% |  |  |  | 14.7% |  | 92.4% |  |  |  | 14.8% |  |  | 9.36% |  | 64.3% |  |  | 96.9% | 5.41% | 113% | 97.2% | 97.7% | 68.7% | 112% | 81.6% | 102% | 20.2% | 118% | 4.44% | 121% | 22.7%
4 | COC(=O)c1ccc2c(c1)NC(=O)/C2=C(\Nc1ccc(N(C)C(=O)CN2CCN(C)CC2)cc1)c1ccccc1 [BIBF 1120] |  | 101% | 91.8% | 42.8% | 104% | 96.3% | 100% | 105% | 111% | 16.4% | 94.6% | 100% | 91% | 99.5% | 57% | 36.6% | 127% | 92.5% | 58.6% | 112% | 101% | 104% |  |  |  |  |  |  |  |  |  |  |  |  |  | 
5 | COCC1(CO)C(=O)C2CCN1CC2 (configuration not stated) [Prima-1 Met] |  | 96.1% | 101% | 90.8% | 93.7% | 93.2% | 96.4% | 105% | 87.8% | 109% | 109% | 88.4% | 122% | 103% | 91.3% | 111% | 109% | 98.5% | 40.4% | 95.4% | 107% | 98% |  |  |  |  |  |  |  |  |  |  |  |  |  | 
6 | COc1cc(OC2CCN(C)CC2)ccc1Nc1ncc2c(n1)n(C1CCCC1)c(=O)n2C [AZ 3146] | 6650 nM | 104% | 86.8% | 74.5% | 97.5% | 88.7% | 87.8% | 75.4% | 89.5% | 62% | 111% | 90% | 100% | 102% | 102% | 84.4% | 110% | 96.2% | 122% | 96% | 97.7% | 85.3% |  |  |  |  |  |  |  |  |  |  |  |  |  | 
7 | COc1cc(O)c2c(c1)/C=C/C[C@H](O)[C@H](O)C(=O)/C=C\C[C@H](C)OC2=O [(5Z)-7-Oxozeaenol] | 953 nM |  |  |  |  |  |  |  |  |  |  |  |  |  |  |  |  |  |  |  |  |  |  |  |  |  |  |  |  |  |  |  |  |  |  | 
8 | O=C(Nc1cccnc1)N1CCC(Cc2cccc(Oc3ccc(C(F)(F)F)cn3)c2)CC1 [PF-3845] | 2500 nM | 111% | 106% | 116% | 109% | 98.1% | 103% | 93.3% | 86.9% | 48.6% | 90.2% | 90.7% | 87.6% | 91.8% | 95.5% | 74.1% | 128% | 111% | 40.5% | 112% | 101% | 101% |  |  |  |  |  |  |  |  |  |  |  |  |  | 
9 | CNC(=O)c1cccc(-c2ccc3c(N4CCOC[C@@H]4C)nc(N4CCOC[C@@H]4C)nc3n2)c1 [AZD2014] | 497 nM |  |  |  |  |  |  |  |  |  |  |  |  |  |  |  |  |  |  |  |  |  |  |  |  |  |  |  |  |  |  |  |  |  |  | 
10 | Nc1cc(C(F)(F)F)c(-c2cc(N3CCOCC3)nc(N3CCOCC3)n2)cn1 [BKM-120] |  | 101% | 24.4% | 9.47% | 100% | 92.1% | 84.3% | 78.3% | 62.5% | 10.8% | 104% | 93.3% | 101% | 92.2% | 60.2% | 14.5% | 129% | 64.3% | 11.1% | 111% | 114% | 96.7% |  |  |  |  |  |  |  |  |  |  |  |  |  | 
11 | Oc1ccc2c(c1)CC[C@H](c1ccccc1)[C@@H]2c1ccc(OCCN2CCCC2)cc1 [Lasofoxifene] |  |  | 101% |  | 97.9% |  |  |  | 90.3% |  | 91.9% |  |  |  | 89.7% |  |  | 110% |  | 98.3% |  |  | 108% | 98.4% | 100% | 92.6% | 88.1% | 83.2% | 93.6% | 88.8% | 83.5% | 84% | 122% | 114% | 115% | 98.9%
12 | CN(C)CCOc1ccc(/C(=C(/CCCl)c2ccccc2)c2ccccc2)cc1 [Toremifene] |  | 113% | 107% | 91.4% | 107% | 98.4% | 110% | 106% | 113% | 88.1% | 110% | 98.6% | 99.4% | 98.1% | 96.1% | 71.8% | 132% | 119% | 92.4% | 126% | 91.4% | 112% |  |  |  |  |  |  |  |  |  |  |  |  |  | 
13 | CN(C)c1nc(N(C)C)nc(N(C)C)n1 [Altretamine] |  | 106% | 113% | 100% | 113% | 108% | 105% | 89.3% | 78.4% | 93.4% | 94.6% | 83.6% | 105% | 96.2% | 98% | 89.6% | 117% | 134% | 138% | 119% | 99.5% | 97.4% |  |  |  |  |  |  |  |  |  |  |  |  |  | 
